Counter-ions that a name gives are not always drawn.
Molecular target: T1, CHK1 kinase (Homo sapiens, UniProt O14757)
T1 construct: The kinase domain is expressed in baculovirus and purified by the GST tag; GST; made in house
T1 sequence (O14757 9-265 limits assumed): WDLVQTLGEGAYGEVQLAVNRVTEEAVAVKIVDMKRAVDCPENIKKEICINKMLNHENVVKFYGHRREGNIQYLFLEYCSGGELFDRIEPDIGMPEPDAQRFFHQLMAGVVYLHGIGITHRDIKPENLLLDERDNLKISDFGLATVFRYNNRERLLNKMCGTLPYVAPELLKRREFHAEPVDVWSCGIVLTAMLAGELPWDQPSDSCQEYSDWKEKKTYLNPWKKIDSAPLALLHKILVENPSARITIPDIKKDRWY
Assay: Checkpoint Kinase 1 Assay (Scintillation Proximity Assay)
Format: biochemical
Settings: assay not given; IC50s are determined in the Checkpoint Kinase 1 assay
Procedure: Checkpoint Kinase 1 Assay: This in vitro assay measures the inhibition of CHK1 kinase by compounds. The kinase domain is expressed in baculovirus and purified by the GST tag. Purified protein and biotinylated peptide substrate (Cdc25C) is then used in a 384 well automated Scintillation Proximity Assay (SPA). Specifically, peptide, enzyme and reaction buffer are mixed and aliquoted into a 384 well plate containing dilution series of compounds and controls. Cold and hot ATP are then added to initiate the reaction. After 2 hours, a SPA bead slurry, […] and EDTA are added to stop the reaction and capture the biotinylated peptide. Plates are then counted on a Topcount. Data is analyzed and IC50s determined for individual compounds.

Molecule CCN(CC)CCOc1ccc(-c2cc(C(=O)NC3CCCNC3)c(NC(N)=O)s2)cc1 (stereo not shown) [Example 2, 2-[(aminocarbonyl)amino]-5-{4-[2-(diethylamino)ethoxy]phenyl}-N-piperidin-3-ylthiophene-3-carboxamide trifluoroacetate] has an IC50 of 10 nM.
